Source: the kinase profiling compilation of Christmann-Franck et al. (2016)

Assays:
Test in all cases: KINOMEscan competition binding
Conditions in all cases: compound 10.0 µM
MAPK11 (human) = MAPK11 (human) (UniProt Q15759)
MAPK13 (human) = MAPK13 (human) (UniProt O15264)
LATS1 (human) = LATS1 (human) (UniProt O95835)
TNK2 (human) = TNK2 (human) (UniProt Q07912)
EPHA8 (human) = EPHA8 (human) (UniProt P29322)
[1] = test system: EGFR (human), P00533 [A750P; 747-749 del]
KIT (human) = KIT (human) (UniProt P10721)
GAK (human) = GAK (human) (UniProt O14976)
GAK (human), sequence (O14976 whole entry, looked up): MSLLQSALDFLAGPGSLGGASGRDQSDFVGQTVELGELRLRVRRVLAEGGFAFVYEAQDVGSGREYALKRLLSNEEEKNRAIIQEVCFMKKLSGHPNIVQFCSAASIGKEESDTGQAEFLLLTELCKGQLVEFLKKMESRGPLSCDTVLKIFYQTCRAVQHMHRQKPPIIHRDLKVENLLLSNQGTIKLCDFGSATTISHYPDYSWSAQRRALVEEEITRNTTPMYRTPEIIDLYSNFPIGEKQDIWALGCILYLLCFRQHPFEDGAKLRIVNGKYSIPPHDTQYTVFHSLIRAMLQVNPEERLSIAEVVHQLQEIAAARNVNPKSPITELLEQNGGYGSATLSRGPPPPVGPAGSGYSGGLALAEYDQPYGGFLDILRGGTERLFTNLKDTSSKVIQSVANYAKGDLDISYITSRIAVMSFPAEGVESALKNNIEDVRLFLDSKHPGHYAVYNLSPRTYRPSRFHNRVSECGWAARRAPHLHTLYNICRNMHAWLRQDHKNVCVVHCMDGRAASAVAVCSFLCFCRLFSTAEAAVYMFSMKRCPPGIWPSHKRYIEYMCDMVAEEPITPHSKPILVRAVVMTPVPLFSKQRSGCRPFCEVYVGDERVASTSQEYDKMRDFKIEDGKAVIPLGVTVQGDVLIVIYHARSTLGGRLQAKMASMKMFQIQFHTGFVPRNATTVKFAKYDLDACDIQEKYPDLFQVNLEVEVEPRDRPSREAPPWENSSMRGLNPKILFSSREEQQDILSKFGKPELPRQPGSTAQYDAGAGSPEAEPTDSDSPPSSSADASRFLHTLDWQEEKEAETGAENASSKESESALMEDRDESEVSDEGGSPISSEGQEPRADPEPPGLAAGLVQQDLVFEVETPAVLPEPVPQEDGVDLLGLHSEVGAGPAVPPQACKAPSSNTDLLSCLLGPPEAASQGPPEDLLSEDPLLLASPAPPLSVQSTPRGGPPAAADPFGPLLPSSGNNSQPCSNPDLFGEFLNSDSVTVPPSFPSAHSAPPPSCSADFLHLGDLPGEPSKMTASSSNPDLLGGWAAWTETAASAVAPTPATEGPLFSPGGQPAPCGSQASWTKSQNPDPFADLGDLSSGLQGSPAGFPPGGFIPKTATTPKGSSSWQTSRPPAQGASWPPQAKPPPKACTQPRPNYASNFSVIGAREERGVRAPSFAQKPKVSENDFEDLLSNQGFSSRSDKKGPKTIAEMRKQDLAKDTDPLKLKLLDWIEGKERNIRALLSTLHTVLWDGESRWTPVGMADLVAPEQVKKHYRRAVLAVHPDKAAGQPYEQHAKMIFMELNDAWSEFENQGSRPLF

EIF2AK2 (human) = EIF2AK2 (human) (UniProt P19525)
MERTK (human) = MERTK (human) (UniProt Q12866)
ITK (human) = ITK (human) (UniProt Q08881)
MUSK (human) = MUSK (human) (UniProt O15146)
TIE1 (human) = TIE1 (human) (UniProt P35590)
MAP2K6 (human) = MAP2K6 (human) (UniProt P52564)
TGFBR1 (human) = TGFBR1 (human) (UniProt P36897)
[2] = test system: MET (human), P08581 [M1250T]
MAK (human) = MAK (human) (UniProt P20794)
STK16 (human) = STK16 (human) (UniProt O75716)
FRK (human) = FRK (human) (UniProt P42685)
EPHA1 (human) = EPHA1 (human) (UniProt P21709)
STK3 (human) = STK3 (human) (UniProt Q13188)
PKN2 (human) = PKN2 (human) (UniProt Q16513)
CAMK2A (human) = CAMK2A (human) (UniProt Q9UQM7)
CAMK2A (human), sequence (Q9UQM7 whole entry, looked up): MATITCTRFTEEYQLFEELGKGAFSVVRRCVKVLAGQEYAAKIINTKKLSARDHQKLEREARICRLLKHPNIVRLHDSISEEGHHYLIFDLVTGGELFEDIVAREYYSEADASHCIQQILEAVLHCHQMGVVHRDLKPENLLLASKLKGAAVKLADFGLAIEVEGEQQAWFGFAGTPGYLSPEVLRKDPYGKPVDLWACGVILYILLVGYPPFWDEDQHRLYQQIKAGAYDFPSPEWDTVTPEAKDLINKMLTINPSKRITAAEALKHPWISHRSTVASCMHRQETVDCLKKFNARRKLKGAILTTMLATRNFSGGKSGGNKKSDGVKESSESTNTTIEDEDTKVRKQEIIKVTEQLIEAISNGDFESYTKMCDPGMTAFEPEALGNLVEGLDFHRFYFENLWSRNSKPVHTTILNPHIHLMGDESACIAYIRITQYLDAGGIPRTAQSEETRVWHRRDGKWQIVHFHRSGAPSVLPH

PIP5K1A (human) = PIP5K1A (human) (UniProt Q99755)
PIP5K1A (human), sequence (Q99755 whole entry, looked up): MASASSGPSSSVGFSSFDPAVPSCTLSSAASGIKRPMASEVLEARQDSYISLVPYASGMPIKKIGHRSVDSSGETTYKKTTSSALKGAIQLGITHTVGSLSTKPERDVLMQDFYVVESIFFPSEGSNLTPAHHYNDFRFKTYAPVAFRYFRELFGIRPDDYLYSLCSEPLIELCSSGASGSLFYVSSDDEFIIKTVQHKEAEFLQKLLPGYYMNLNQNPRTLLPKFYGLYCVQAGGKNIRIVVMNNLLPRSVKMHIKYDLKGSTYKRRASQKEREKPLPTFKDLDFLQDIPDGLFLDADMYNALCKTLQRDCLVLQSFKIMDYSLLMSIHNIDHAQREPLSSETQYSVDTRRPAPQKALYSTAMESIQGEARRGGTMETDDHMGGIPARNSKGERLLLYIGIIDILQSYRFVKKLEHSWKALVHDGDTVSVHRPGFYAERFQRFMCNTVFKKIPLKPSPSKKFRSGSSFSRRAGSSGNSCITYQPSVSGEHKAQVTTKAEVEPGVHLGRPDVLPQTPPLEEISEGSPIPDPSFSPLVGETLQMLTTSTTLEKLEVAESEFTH

PRKCH (human) = PRKCH (human) (UniProt P24723)
ERBB4 (human) = ERBB4 (human) (UniProt Q15303)
ERBB4 (human), sequence (Q15303 whole entry, looked up): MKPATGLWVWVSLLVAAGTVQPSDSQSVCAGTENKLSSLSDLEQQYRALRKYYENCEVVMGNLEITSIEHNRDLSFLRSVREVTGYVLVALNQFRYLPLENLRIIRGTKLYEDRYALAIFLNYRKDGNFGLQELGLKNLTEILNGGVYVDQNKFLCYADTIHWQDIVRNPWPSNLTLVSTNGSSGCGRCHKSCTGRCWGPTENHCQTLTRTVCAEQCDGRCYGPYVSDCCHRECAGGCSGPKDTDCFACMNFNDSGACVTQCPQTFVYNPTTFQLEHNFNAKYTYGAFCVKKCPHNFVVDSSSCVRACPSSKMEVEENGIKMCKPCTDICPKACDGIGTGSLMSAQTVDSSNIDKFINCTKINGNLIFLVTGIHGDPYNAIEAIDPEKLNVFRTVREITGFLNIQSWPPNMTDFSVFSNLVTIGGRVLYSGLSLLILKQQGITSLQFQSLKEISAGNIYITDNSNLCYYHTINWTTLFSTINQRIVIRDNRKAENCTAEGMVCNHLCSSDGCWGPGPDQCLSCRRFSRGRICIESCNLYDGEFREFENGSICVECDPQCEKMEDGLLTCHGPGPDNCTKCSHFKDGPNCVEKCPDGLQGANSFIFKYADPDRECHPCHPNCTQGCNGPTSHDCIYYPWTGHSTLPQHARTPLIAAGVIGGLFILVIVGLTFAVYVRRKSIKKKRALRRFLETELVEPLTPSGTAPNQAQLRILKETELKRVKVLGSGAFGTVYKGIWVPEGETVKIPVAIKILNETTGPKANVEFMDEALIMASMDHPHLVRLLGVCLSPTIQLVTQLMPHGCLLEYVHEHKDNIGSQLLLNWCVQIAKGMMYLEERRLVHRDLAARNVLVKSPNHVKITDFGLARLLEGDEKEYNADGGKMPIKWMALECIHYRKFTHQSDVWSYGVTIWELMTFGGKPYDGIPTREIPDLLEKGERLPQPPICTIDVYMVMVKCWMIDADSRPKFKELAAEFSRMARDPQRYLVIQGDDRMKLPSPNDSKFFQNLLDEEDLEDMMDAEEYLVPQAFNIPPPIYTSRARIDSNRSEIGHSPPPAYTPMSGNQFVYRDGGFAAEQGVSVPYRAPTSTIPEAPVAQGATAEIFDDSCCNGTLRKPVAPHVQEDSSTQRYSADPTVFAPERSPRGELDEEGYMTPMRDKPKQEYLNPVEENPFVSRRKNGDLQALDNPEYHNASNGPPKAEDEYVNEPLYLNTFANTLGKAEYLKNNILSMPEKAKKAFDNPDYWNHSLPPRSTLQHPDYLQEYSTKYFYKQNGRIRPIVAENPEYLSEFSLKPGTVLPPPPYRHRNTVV

DDR2 (human) = DDR2 (human) (UniProt Q16832)
ULK1 (human) = ULK1 (human) (UniProt O75385)
ULK1 (human), sequence (O75385 whole entry, looked up): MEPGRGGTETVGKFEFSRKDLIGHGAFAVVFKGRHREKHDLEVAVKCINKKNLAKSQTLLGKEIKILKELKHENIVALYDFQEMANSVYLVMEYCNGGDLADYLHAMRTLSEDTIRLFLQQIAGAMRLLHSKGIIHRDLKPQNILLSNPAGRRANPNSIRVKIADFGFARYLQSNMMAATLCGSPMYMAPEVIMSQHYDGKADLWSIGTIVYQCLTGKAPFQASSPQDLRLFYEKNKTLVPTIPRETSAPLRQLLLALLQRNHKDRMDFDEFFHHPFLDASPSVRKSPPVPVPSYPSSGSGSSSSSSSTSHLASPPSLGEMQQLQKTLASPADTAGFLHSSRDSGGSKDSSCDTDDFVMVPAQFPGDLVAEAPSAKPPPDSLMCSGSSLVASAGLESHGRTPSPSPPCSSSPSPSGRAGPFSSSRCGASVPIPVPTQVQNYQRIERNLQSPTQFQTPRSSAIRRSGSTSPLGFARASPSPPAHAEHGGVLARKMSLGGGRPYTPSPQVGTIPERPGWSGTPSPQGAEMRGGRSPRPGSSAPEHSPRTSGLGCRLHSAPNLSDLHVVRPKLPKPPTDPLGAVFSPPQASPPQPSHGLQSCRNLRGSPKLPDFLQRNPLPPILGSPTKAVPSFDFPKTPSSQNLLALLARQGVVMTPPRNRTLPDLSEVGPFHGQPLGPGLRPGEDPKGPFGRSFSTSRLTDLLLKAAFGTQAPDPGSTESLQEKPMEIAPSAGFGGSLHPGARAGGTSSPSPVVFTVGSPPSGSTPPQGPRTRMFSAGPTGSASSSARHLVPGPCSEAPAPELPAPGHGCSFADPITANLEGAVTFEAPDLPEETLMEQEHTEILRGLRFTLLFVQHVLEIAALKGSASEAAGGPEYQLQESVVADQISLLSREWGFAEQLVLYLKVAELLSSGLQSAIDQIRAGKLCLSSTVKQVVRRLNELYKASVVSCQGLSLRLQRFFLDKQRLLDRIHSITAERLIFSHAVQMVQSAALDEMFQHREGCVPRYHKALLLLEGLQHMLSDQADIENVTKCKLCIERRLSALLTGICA

AKT1 (human) = AKT1 (human) (UniProt P31749)
NEK6 (human) = NEK6 (human) (UniProt Q9HC98)
PRKG1 (human) = PRKG1 (human) (UniProt Q13976)
LATS2 (human) = LATS2 (human) (UniProt Q9NRM7)
NEK1 (human) = NEK1 (human) (UniProt Q96PY6)
MAPK14 (human) = MAPK14 (human) (UniProt Q16539)
FER (human) = FER (human) (UniProt P16591)
MYLK (human) = MYLK (human) (UniProt Q15746)
CAMK1D (human) = CAMK1D (human) (UniProt Q8IU85)
CAMK1D (human), sequence (Q8IU85 whole entry, looked up): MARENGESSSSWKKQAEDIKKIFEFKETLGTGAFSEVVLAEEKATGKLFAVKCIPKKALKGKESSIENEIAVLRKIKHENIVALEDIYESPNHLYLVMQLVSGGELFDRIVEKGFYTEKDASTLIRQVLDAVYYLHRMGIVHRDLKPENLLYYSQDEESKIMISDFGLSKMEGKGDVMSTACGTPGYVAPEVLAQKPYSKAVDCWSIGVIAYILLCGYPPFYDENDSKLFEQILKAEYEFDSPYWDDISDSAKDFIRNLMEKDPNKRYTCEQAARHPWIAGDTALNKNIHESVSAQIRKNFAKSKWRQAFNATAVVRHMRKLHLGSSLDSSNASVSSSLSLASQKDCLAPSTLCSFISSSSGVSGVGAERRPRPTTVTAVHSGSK

RPS6KB1 (human) = RPS6KB1 (human) (UniProt P23443)
[3] = test system: KIT (human), P10721 [D816H]

SMILES | kinase still bound, per cent of control (MAPK11 (human)) [%] | kinase still bound, per cent of control (TNK2 (human)) [%] | kinase still bound, per cent of control (EPHA8 (human)) [%] | kinase still bound, per cent of control (KIT (human)) [%] | kinase still bound, per cent of control (GAK (human)) [%] | kinase still bound, per cent of control (EIF2AK2 (human)) [%] | kinase still bound, per cent of control (MERTK (human)) [%] | kinase still bound, per cent of control (ITK (human)) [%] | kinase still bound, per cent of control (MAP2K6 (human)) [%] | kinase still bound, per cent of control [2] [%] | kinase still bound, per cent of control (MAK (human)) [%] | kinase still bound, per cent of control (STK16 (human)) [%] | kinase still bound, per cent of control (EPHA1 (human)) [%] | kinase still bound, per cent of control (STK3 (human)) [%] | kinase still bound, per cent of control (PKN2 (human)) [%] | kinase still bound, per cent of control (CAMK2A (human)) [%] | kinase still bound, per cent of control (PIP5K1A (human)) [%] | kinase still bound, per cent of control (ERBB4 (human)) [%] | kinase still bound, per cent of control (DDR2 (human)) [%] | kinase still bound, per cent of control (ULK1 (human)) [%] | also measured
Cc1cn(-c2cc(C(=O)Nc3ccc(C)c(NC(=O)c4ccno4)c3)cc(C(F)(F)F)c2)cn1 | 0 | 100 | 0.3 | 0 | 100 | 100 | 100 | 100 | 100 | 100 | 100 | 100 | 100 | 100 | 100 | 100 | 100 | 100 | 15 | 100 | kinase still bound, per cent of control (MAPK13 (human)): 100%; kinase still bound, per cent of control (LATS1 (human)): 100%; kinase still bound, per cent of control [1]: 100%; kinase still bound, per cent of control (MUSK (human)): 100%; kinase still bound, per cent of control (TIE1 (human)): 100%; kinase still bound, per cent of control (TGFBR1 (human)): 100%; kinase still bound, per cent of control (FRK (human)): 0.85%; kinase still bound, per cent of control (PRKCH (human)): 100%; kinase still bound, per cent of control (AKT1 (human)): 100%; kinase still bound, per cent of control (NEK6 (human)): 100%; kinase still bound, per cent of control (PRKG1 (human)): 100%; kinase still bound, per cent of control (LATS2 (human)): 100%; kinase still bound, per cent of control (NEK1 (human)): 100%; kinase still bound, per cent of control (MAPK14 (human)): 0.3%; kinase still bound, per cent of control (FER (human)): 100%; kinase still bound, per cent of control (MYLK (human)): 100%; kinase still bound, per cent of control (CAMK1D (human)): 100%
CCOc1cc(N2CCC(O)CC2)ccc1Nc1ncc2c(n1)N(C)c1ccccc1C(=O)N2C | 100 | 17 | 100 | 100 | 31 | 100 | 100 | 100 | 100 | 100 | 100 | 100 | 100 | 100 | 100 | 100 | 100 | 100 | 100 | 100 | kinase still bound, per cent of control (MAPK13 (human)): 100%; kinase still bound, per cent of control (LATS1 (human)): 100%; kinase still bound, per cent of control [1]: 100%; kinase still bound, per cent of control (MUSK (human)): 100%; kinase still bound, per cent of control (TIE1 (human)): 100%; kinase still bound, per cent of control (TGFBR1 (human)): 100%; kinase still bound, per cent of control (FRK (human)): 100%; kinase still bound, per cent of control (PRKCH (human)): 100%; kinase still bound, per cent of control (AKT1 (human)): 100%; kinase still bound, per cent of control (NEK6 (human)): 100%; kinase still bound, per cent of control (PRKG1 (human)): 100%; kinase still bound, per cent of control (LATS2 (human)): 100%; kinase still bound, per cent of control (NEK1 (human)): 100%; kinase still bound, per cent of control (MAPK14 (human)): 100%; kinase still bound, per cent of control (FER (human)): 100%; kinase still bound, per cent of control (MYLK (human)): 100%; kinase still bound, per cent of control (CAMK1D (human)): 100%
CC(=O)c1c(C)c2cnc(Nc3ccc(N4CCNCC4)cn3)nc2n(C2CCCC2)c1=O | 96 | 92 | 93 | 60 | 4.4 | 30 | 39 | 71 | 45 | 41 | 76 | 3.4 | 100 | 59 | 48 | 3.2 | 32 | 83 | 56 | 3.1 | kinase still bound, per cent of control (RPS6KB1 (human)): 36%; kinase still bound, per cent of control [3]: 56%; kinase still bound, per cent of control (AKT1 (human)): 92%; kinase still bound, per cent of control (NEK6 (human)): 69%; kinase still bound, per cent of control (LATS2 (human)): 42%; kinase still bound, per cent of control (NEK1 (human)): 61%; kinase still bound, per cent of control (FER (human)): 47%; kinase still bound, per cent of control (MYLK (human)): 20%; kinase still bound, per cent of control (CAMK1D (human)): 7.3%
